pIC50: −log10 of the molar value.
These compounds were tested on 843126-344-R-J1-PDC complex spheroid viability (assay: Anticancer human tumor 843126-344-R-J1-PDC patient-derived melanoma cell line growth inhibition [POLQ]). Conditions: curve of first compound; second compound 0.0316 µM.
Summary of the method: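 Growth inhibition in 3D: complex spheroids (tumor PDC, HUVEC, MSC) treated with POLQ inhibitor combinations; where Cmax unknown, highest tested concentration 10 microM, except SN-38 at 1 microM.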

Compound	pIC50
COc1cc(C2c3cc4c(cc3C(OC3OC5COC(C)OC5C(O)C3O)C3COC(=O)C23)OCO4)cc(OC)c1O (stereo unspecified) + Nc1ccc(C#CCN(C(=O)Cc2ncc(C(F)(F)F)cc2C(F)(F)F)c2ccc(F)cc2)nn1	< 5.00
COc1cccc(OCCCN)c1-c1cc(Nc2cnc(C#N)cn2)n[nH]1 + Nc1ccc(C#CCN(C(=O)Cc2ncc(C(F)(F)F)cc2C(F)(F)F)c2ccc(F)cc2)nn1	7.24
O=c1[nH]cc(F)c(=O)[nH]1 + Cc1cccc(N(C)C(=O)C2C(O)CCN2c2nc(C)cc(C(F)(F)F)c2C#N)c1	< 5.00
C=CCn1c(=O)c2cnc(Nc3ccc(N4CCN(C)CC4)cc3)nc2n1-c1cccc(C(C)(C)O)n1 + COC1C(OC(N)=O)C(O)C(Oc2ccc3c(O)c(NC(=O)c4ccc(O)c(CC=C(C)C)c4)c(=O)oc3c2C)OC1(C)C	< 6.00
CCc1c2c(nc3ccc(O)cc13)-c1cc3c(c(=O)n1C2)COC(=O)[C@]3(O)CC + COC1C(OC(N)=O)C(O)C(Oc2ccc3c(O)c(NC(=O)c4ccc(O)c(CC=C(C)C)c4)c(=O)oc3c2C)OC1(C)C	< 6.00
O=c1[nH]cc(F)c(=O)[nH]1 + Nc1ccc(C#CCN(C(=O)Cc2ncc(C(F)(F)F)cc2C(F)(F)F)c2ccc(F)cc2)nn1	< 5.00
COc1cc2cc(C(=O)CCC(=O)O)sc2cc1OC + COC1C(OC(N)=O)C(O)C(Oc2ccc3c(O)c(NC(=O)c4ccc(O)c(CC=C(C)C)c4)c(=O)oc3c2C)OC1(C)C	< 5.00

Same assay, conditions: curve of first compound; second compound 0.1 µM

Compound	pIC50
COc1cc(C2c3cc4c(cc3C(OC3OC5COC(C)OC5C(O)C3O)C3COC(=O)C23)OCO4)cc(OC)c1O (stereo unspecified) + Nc1ccc(C#CCN(C(=O)Cc2ncc(C(F)(F)F)cc2C(F)(F)F)c2ccc(F)cc2)nn1	< 5.00
COc1cccc(OCCCN)c1-c1cc(Nc2cnc(C#N)cn2)n[nH]1 + Nc1ccc(C#CCN(C(=O)Cc2ncc(C(F)(F)F)cc2C(F)(F)F)c2ccc(F)cc2)nn1	7.07
O=c1[nH]cc(F)c(=O)[nH]1 + Cc1cccc(N(C)C(=O)C2C(O)CCN2c2nc(C)cc(C(F)(F)F)c2C#N)c1	< 5.00
C=CCn1c(=O)c2cnc(Nc3ccc(N4CCN(C)CC4)cc3)nc2n1-c1cccc(C(C)(C)O)n1 + COC1C(OC(N)=O)C(O)C(Oc2ccc3c(O)c(NC(=O)c4ccc(O)c(CC=C(C)C)c4)c(=O)oc3c2C)OC1(C)C	< 6.00
CCc1c2c(nc3ccc(O)cc13)-c1cc3c(c(=O)n1C2)COC(=O)[C@]3(O)CC + COC1C(OC(N)=O)C(O)C(Oc2ccc3c(O)c(NC(=O)c4ccc(O)c(CC=C(C)C)c4)c(=O)oc3c2C)OC1(C)C	< 6.00
O=c1[nH]cc(F)c(=O)[nH]1 + Nc1ccc(C#CCN(C(=O)Cc2ncc(C(F)(F)F)cc2C(F)(F)F)c2ccc(F)cc2)nn1	< 5.00
COc1cc2cc(C(=O)CCC(=O)O)sc2cc1OC + COC1C(OC(N)=O)C(O)C(Oc2ccc3c(O)c(NC(=O)c4ccc(O)c(CC=C(C)C)c4)c(=O)oc3c2C)OC1(C)C	< 5.00

Same assay, conditions: curve of first compound; second compound 0.316 µM

Compound	pIC50
COc1cc(C2c3cc4c(cc3C(OC3OC5COC(C)OC5C(O)C3O)C3COC(=O)C23)OCO4)cc(OC)c1O (stereo unspecified) + Nc1ccc(C#CCN(C(=O)Cc2ncc(C(F)(F)F)cc2C(F)(F)F)c2ccc(F)cc2)nn1	< 5.00
COc1cccc(OCCCN)c1-c1cc(Nc2cnc(C#N)cn2)n[nH]1 + Nc1ccc(C#CCN(C(=O)Cc2ncc(C(F)(F)F)cc2C(F)(F)F)c2ccc(F)cc2)nn1	7.04
O=c1[nH]cc(F)c(=O)[nH]1 + Cc1cccc(N(C)C(=O)C2C(O)CCN2c2nc(C)cc(C(F)(F)F)c2C#N)c1	< 5.00
C=CCn1c(=O)c2cnc(Nc3ccc(N4CCN(C)CC4)cc3)nc2n1-c1cccc(C(C)(C)O)n1 + COC1C(OC(N)=O)C(O)C(Oc2ccc3c(O)c(NC(=O)c4ccc(O)c(CC=C(C)C)c4)c(=O)oc3c2C)OC1(C)C	< 6.00
CCc1c2c(nc3ccc(O)cc13)-c1cc3c(c(=O)n1C2)COC(=O)[C@]3(O)CC + COC1C(OC(N)=O)C(O)C(Oc2ccc3c(O)c(NC(=O)c4ccc(O)c(CC=C(C)C)c4)c(=O)oc3c2C)OC1(C)C	< 6.00
O=c1[nH]cc(F)c(=O)[nH]1 + Nc1ccc(C#CCN(C(=O)Cc2ncc(C(F)(F)F)cc2C(F)(F)F)c2ccc(F)cc2)nn1	< 5.00
COc1cc2cc(C(=O)CCC(=O)O)sc2cc1OC + COC1C(OC(N)=O)C(O)C(Oc2ccc3c(O)c(NC(=O)c4ccc(O)c(CC=C(C)C)c4)c(=O)oc3c2C)OC1(C)C	< 5.00

Same assay, conditions: curve of first compound; second compound 1 µM

Compound	pIC50
COc1cc(C2c3cc4c(cc3C(OC3OC5COC(C)OC5C(O)C3O)C3COC(=O)C23)OCO4)cc(OC)c1O (stereo unspecified) + Nc1ccc(C#CCN(C(=O)Cc2ncc(C(F)(F)F)cc2C(F)(F)F)c2ccc(F)cc2)nn1	< 5.00
COc1cccc(OCCCN)c1-c1cc(Nc2cnc(C#N)cn2)n[nH]1 + Nc1ccc(C#CCN(C(=O)Cc2ncc(C(F)(F)F)cc2C(F)(F)F)c2ccc(F)cc2)nn1	7.01
O=c1[nH]cc(F)c(=O)[nH]1 + Cc1cccc(N(C)C(=O)C2C(O)CCN2c2nc(C)cc(C(F)(F)F)c2C#N)c1	< 5.00
C=CCn1c(=O)c2cnc(Nc3ccc(N4CCN(C)CC4)cc3)nc2n1-c1cccc(C(C)(C)O)n1 + COC1C(OC(N)=O)C(O)C(Oc2ccc3c(O)c(NC(=O)c4ccc(O)c(CC=C(C)C)c4)c(=O)oc3c2C)OC1(C)C	< 6.00
CCc1c2c(nc3ccc(O)cc13)-c1cc3c(c(=O)n1C2)COC(=O)[C@]3(O)CC + COC1C(OC(N)=O)C(O)C(Oc2ccc3c(O)c(NC(=O)c4ccc(O)c(CC=C(C)C)c4)c(=O)oc3c2C)OC1(C)C	6.37
O=c1[nH]cc(F)c(=O)[nH]1 + Nc1ccc(C#CCN(C(=O)Cc2ncc(C(F)(F)F)cc2C(F)(F)F)c2ccc(F)cc2)nn1	< 5.00
COc1cc2cc(C(=O)CCC(=O)O)sc2cc1OC + COC1C(OC(N)=O)C(O)C(Oc2ccc3c(O)c(NC(=O)c4ccc(O)c(CC=C(C)C)c4)c(=O)oc3c2C)OC1(C)C	< 5.00

Same assay, conditions: curve of first compound; second compound 3.16 µM

Compound	pIC50
COc1cc(C2c3cc4c(cc3C(OC3OC5COC(C)OC5C(O)C3O)C3COC(=O)C23)OCO4)cc(OC)c1O (stereo unspecified) + Nc1ccc(C#CCN(C(=O)Cc2ncc(C(F)(F)F)cc2C(F)(F)F)c2ccc(F)cc2)nn1	5.12
COc1cccc(OCCCN)c1-c1cc(Nc2cnc(C#N)cn2)n[nH]1 + Nc1ccc(C#CCN(C(=O)Cc2ncc(C(F)(F)F)cc2C(F)(F)F)c2ccc(F)cc2)nn1	7.59
O=c1[nH]cc(F)c(=O)[nH]1 + Cc1cccc(N(C)C(=O)C2C(O)CCN2c2nc(C)cc(C(F)(F)F)c2C#N)c1	< 5.00
C=CCn1c(=O)c2cnc(Nc3ccc(N4CCN(C)CC4)cc3)nc2n1-c1cccc(C(C)(C)O)n1 + COC1C(OC(N)=O)C(O)C(Oc2ccc3c(O)c(NC(=O)c4ccc(O)c(CC=C(C)C)c4)c(=O)oc3c2C)OC1(C)C	< 6.00
CCc1c2c(nc3ccc(O)cc13)-c1cc3c(c(=O)n1C2)COC(=O)[C@]3(O)CC + COC1C(OC(N)=O)C(O)C(Oc2ccc3c(O)c(NC(=O)c4ccc(O)c(CC=C(C)C)c4)c(=O)oc3c2C)OC1(C)C	6.62
O=c1[nH]cc(F)c(=O)[nH]1 + Nc1ccc(C#CCN(C(=O)Cc2ncc(C(F)(F)F)cc2C(F)(F)F)c2ccc(F)cc2)nn1	< 5.00
COc1cc2cc(C(=O)CCC(=O)O)sc2cc1OC + COC1C(OC(N)=O)C(O)C(Oc2ccc3c(O)c(NC(=O)c4ccc(O)c(CC=C(C)C)c4)c(=O)oc3c2C)OC1(C)C	< 5.00

Same assay, conditions: curve of first compound; second compound 10 µM

Compound	pIC50
COc1cc(C2c3cc4c(cc3C(OC3OC5COC(C)OC5C(O)C3O)C3COC(=O)C23)OCO4)cc(OC)c1O (stereo unspecified) + Nc1ccc(C#CCN(C(=O)Cc2ncc(C(F)(F)F)cc2C(F)(F)F)c2ccc(F)cc2)nn1	5.20
